The values that follow come from US7560105B1, “Dendritic cells activated in the presence of glucocorticoid hormones are capable of suppressing antigen-specific T cell responses” (Leids Universitair Medisch Centrum, priority 1999, dated 2009).

Assay [1] concerns human monocyte-derived DC. The assay is described as follows: DC surface phenotype by flow cytometry after CD40 ligation. The format is cell-based. The conditions noted are these: DEX titration, data not shown. The procedure:
Immature DC were generated from peripheral blood monocyte precursors (PBMC). Human PBMC from healthy donors, isolated through Ficoll-Hypaque density centrifugation were plated at 1.5×10^7 per well in 6-well plates (Costar Corp., Cambridge, Mass.) in RPMI 1640 (Life Technologies, Paisley, Scotland) supplemented with 2 mM glutamine, 100 UI/ml penicillin and 10% FCS. After 2 h at 37° C., the nonadherent cells were removed and the adherent cells were cultured in medium containing 500 U/ml IL-4 (Pepro Tech Inc. Rocky Hill, N.J.) and 800 U/ml GM-CSF (kindly provided by Dr S. Osanto, LUMC, Leiden, NL) for a total of 7 days.
Activation of DC though CD40 was performed with a fusion protein made of the extracellular domain of human CD40L and of the murine CD8a chain (CD 8-CD40L). The CD8-CD40L cDNA described by Garrone et al. (23) was transferred into an eukaryotic expression vector containing the hygromycin resistance gene and used for the generation of stably transfected Chinese Hamster Ovary (CHO) cells. […] DC were incubated at 5×10^5/ml/well in a 24-well plate (Costar Corp., Cambridge, Mass.) and activated in the presence of 1/10 CD8-CD40L supernatant. Cells and supernatants were analyzed after 48 h. […]
Cells were stained on ice with FITC or PE-conjugated mouse monoclonal antibodies (MoAb) for 30 min in PBS 1% FCS and were analyzed on a FACScan® (Becton Dickinson, San Jose, Calif.). […]
On the technique in general: A flow cytometer gives signals particle by particle.

Assay [2] concerns human monocyte-derived DC. The assay is described as follows: Cytokine detection by ELISA in DC culture supernatants. In kind it is cell-based. The conditions noted are these: CD40 triggering of DEX-treated DC vs untreated. The procedure: Data are representative from 6 independent experiments.
Activation of DC though CD40 was performed with a fusion protein made of the extracellular domain of human CD40L and of the murine CD8a chain (CD 8-CD40L). The CD8-CD40L cDNA described by Garrone et al. (23) was transferred into an eukaryotic expression vector containing the hygromycin resistance gene and used for the generation of stably transfected Chinese Hamster Ovary (CHO) cells. […] DC were incubated at 5×10^5/ml/well in a 24-well plate (Costar Corp., Cambridge, Mass.) and activated in the presence of 1/10 CD8-CD40L supernatant. Cells and supernatants were analyzed after 48 h. Of note, control supernatants obtained from untransfected CHO cells or from CHO cells transfected with the CD8a cDNA lacked DC activating functions and were similar to culture medium.
Culture supernatants were analyzed in serial two-fold dilutions in duplicate. IL-12p70 was detected using a solid phase sandwich ELISA kit (Diaclone Research, Besancon, France) (sensitivity 3 pg/ml). For IL-12p40 and IFN-g detection, capture MoAb and polyclonal biotinylated detection Ab were obtained from Peter van de Meijde (BPRC, Rijswijk, NL) (sensitivity 10 pg/ml). IL-10 was detected using the Pelikine compact human IL-10 ELISA kit (CLB, Amsterdam, NL) (sensitivity 3 pg/ml).
A general note: ELISA stands for enzyme-linked immunosorbent assay.

The structures appear in SMILES notation.

In the case of `C[C@@H]1C[C@H]2[C@@H]3CCC4=CC(=O)C=C[C@]4(C)[C@@]3(F)[C@@H](O)C[C@]2(C)[C@@]1(O)C(=O)CO` [DEX, dexamethasone], in assay [1] (10^-9 M), the CD40-mediated phenotypic changes result is “no effect”. Moreover, the CD40-mediated phenotypic changes result in assay [1] (10^-10) is “no effect”. In assay [2], the “enhancement of IL-10 production” value is reported as “up to 50 fold” and the “reduction of IL-12p40 production” value is “up to 100 fold”.
